Values after ≈ are worked out from the molar mass of the structure shown.
Key:
Format in all cases: functional
Escherichia coli [1] = test: Antimicrobial activity against Escherichia coli isolate GZ4 PFGE type A2 harboring qepA gene by agar dilution method
Escherichia coli [2] = test: Antimicrobial activity against Escherichia coli isolate GZ5 PFGE type B harboring qepA gene by agar dilution method
Escherichia coli [3] = test: Antimicrobial activity against Escherichia coli isolate GZ6 PFGE type B harboring qepA gene by agar dilution method
Escherichia coli [4] = test: Antimicrobial activity against Escherichia coli isolate GZ8 PFGE type C harboring qepA gene by agar dilution method
Escherichia coli [5] = test: Antimicrobial activity against Escherichia coli isolate GZ9 PFGE type D harboring qepA gene by agar dilution method
Escherichia coli [6] = test: Antimicrobial activity against Escherichia coli isolate GZ12 PFGE type F harboring qepA gene by agar dilution method
Escherichia coli [7] = test: Antimicrobial activity against Escherichia coli isolate GZ15 PFGE type G harboring qepA gene by agar dilution method
Escherichia coli [8] = test: Antimicrobial activity against Escherichia coli isolate GZ16 PFGE type H harboring qepA gene by agar dilution method
Escherichia coli [9] = test: Antimicrobial activity against Escherichia coli isolate CQ15 PFGE type I1 harboring qepA gene by agar dilution method
Escherichia coli [10] = test: Antimicrobial activity against Escherichia coli isolate CQ18 PFGE type I2 harboring qepA gene by agar dilution method
Escherichia coli [11] = test: Antimicrobial activity against Escherichia coli isolate CQ2 PFGE type I2 harboring qepA gene by agar dilution method
Escherichia coli [12] = test: Antimicrobial activity against Escherichia coli isolate CQ5 PFGE type I2 harboring qepA gene by agar dilution method
Escherichia coli [13] = test: Antimicrobial activity against Escherichia coli isolate CQ4 PFGE type J1 harboring qepA gene by agar dilution method
Escherichia coli [14] = test: Antimicrobial activity against Escherichia coli isolate CQ20 PFGE type J1 harboring qepA gene by agar dilution method
Escherichia coli [15] = test: Antimicrobial activity against Escherichia coli isolate CQ10 PFGE type L harboring qepA gene by agar dilution method
Escherichia coli [16] = test: Antimicrobial activity against Escherichia coli isolate CQ14 PFGE type M harboring qepA gene by agar dilution method
Escherichia coli [17] = test: Antimicrobial activity against Escherichia coli isolate GZ7 PFGE type N harboring qepA gene by agar dilution method
Escherichia coli [18] = test: Antimicrobial activity against Escherichia coli isolate GZ1 PFGE type O harboring qepA gene by agar dilution method
Escherichia coli [19] = test: Antimicrobial activity against Escherichia coli isolate CQ22 PFGE type P harboring qepA gene by agar dilution method
Escherichia coli [20] = test: Antimicrobial activity against Escherichia coli isolate CQ7 PFGE type Q harboring qepA gene by agar dilution method
Escherichia coli [21] = test: Antimicrobial activity against Escherichia coli isolate CQ16 PFGE type Q harboring qepA gene by agar dilution method
Escherichia coli [22] = test: Antimicrobial activity against Escherichia coli isolate GZ10 PFGE type R harboring qepA gene by agar dilution method
Escherichia coli [23] = test: Antimicrobial activity against Escherichia coli isolate CQ19 PFGE type S harboring qepA gene by agar dilution method
Escherichia coli [24] = test: Antimicrobial activity against Escherichia coli isolate GZ3 transconjugant harboring 16S rRNA methylase RmtB and qepA by agar dilution method relative to recipient strain
Escherichia coli [25] = test: Antimicrobial activity against Escherichia coli isolate GZ5 transconjugant harboring 16S rRNA methylase RmtB and qepA by agar dilution method relative to recipient strain
Escherichia coli [26] = test: Antimicrobial activity against Escherichia coli isolate GZ6 transconjugant harboring 16S rRNA methylase RmtB and qepA by agar dilution method relative to recipient strain
Escherichia coli [27] = test: Antimicrobial activity against Escherichia coli isolate GZ8 transconjugant harboring 16S rRNA methylase RmtB and qepA by agar dilution method relative to recipient strain
Escherichia coli [28] = test: Antimicrobial activity against Escherichia coli isolate GZ9 transconjugant harboring 16S rRNA methylase RmtB and qepA by agar dilution method relative to recipient strain
Escherichia coli [29] = test: Antimicrobial activity against Escherichia coli isolate GZ11 transconjugant harboring 16S rRNA methylase RmtB and qepA by agar dilution method relative to recipient strain
Escherichia coli [30] = test: Antimicrobial activity against Escherichia coli isolate GZ12 transconjugant harboring 16S rRNA methylase RmtB and qepA by agar dilution method relative to recipient strain
Escherichia coli [31] = test: Antimicrobial activity against Escherichia coli isolate GZ13 transconjugant harboring 16S rRNA methylase RmtB and qepA by agar dilution method relative to recipient strain
Escherichia coli [32] = test: Antimicrobial activity against Escherichia coli isolate GZ15 transconjugant harboring 16S rRNA methylase RmtB and qepA by agar dilution method relative to recipient strain
Escherichia coli [33] = test: Antimicrobial activity against Escherichia coli isolate GZ16 transconjugant harboring 16S rRNA methylase RmtB and qepA by agar dilution method relative to recipient strain
Escherichia coli [34] = test: Antimicrobial activity against Escherichia coli isolate CQ18 transconjugant harboring 16S rRNA methylase RmtB and qepA by agar dilution method relative to recipient strain
Escherichia coli [35] = test: Antimicrobial activity against Escherichia coli isolate CQ2 transconjugant harboring 16S rRNA methylase RmtB and qepA by agar dilution method relative to recipient strain
Escherichia coli [36] = test: Antimicrobial activity against Escherichia coli isolate CQ4 transconjugant harboring 16S rRNA methylase RmtB and qepA by agar dilution method relative to recipient strain
Escherichia coli [37] = test: Antimicrobial activity against Escherichia coli isolate CQ26 transconjugant harboring 16S rRNA methylase RmtB and qepA by agar dilution method relative to recipient strain
Escherichia coli [38] = test: Antimicrobial activity against Escherichia coli isolate CQ10 transconjugant harboring 16S rRNA methylase RmtB and qepA by agar dilution method relative to recipient strain
Escherichia coli [39] = test: Antimicrobial activity against Escherichia coli isolate CQ14 transconjugant harboring 16S rRNA methylase RmtB and qepA by agar dilution method relative to recipient strain
Escherichia coli [40] = test: Antimicrobial activity against Escherichia coli isolate GZ7 transconjugant harboring 16S rRNA methylase RmtB and qepA and qnrS1 by agar dilution method relative to recipient strain
Escherichia coli [41] = test: Antimicrobial activity against Escherichia coli isolate GZ1 transconjugant harboring 16S rRNA methylase RmtB and qnrS1 by agar dilution method relative to recipient strain
Escherichia coli [42] = test: Antimicrobial activity against Escherichia coli isolate GZ2 transconjugant harboring 16S rRNA methylase RmtB and qnrS1 by agar dilution method relative to recipient strain
Escherichia coli [43] = test: Antimicrobial activity against Escherichia coli isolate CQ22 transconjugant harboring 16S rRNA methylase RmtB and qnrS1 by agar dilution method relative to recipient strain
Escherichia coli [44] = test: Antimicrobial activity against Escherichia coli isolate CQ6 transconjugant harboring 16S rRNA methylase RmtB and qepA, qnrS2, aac(6')-Ib-cr gene by agar dilution method relative to recipient strain
Escherichia coli [45] = test: Antimicrobial activity against Escherichia coli isolate CQ16 transconjugant harboring 16S rRNA methylase RmtB and qepA, qnrS2, aac(6')-Ib-cr gene by agar dilution method relative to recipient strain
Escherichia coli [46] = test: Antimicrobial activity against Escherichia coli isolate GZ10 transconjugant harboring 16S rRNA methylase RmtB and qepA, aac(6')-Ib-cr gene by agar dilution method relative to recipient strain
Escherichia coli [47] = test: Antimicrobial activity against Escherichia coli isolate CQ1 transconjugant harboring 16S rRNA methylase RmtB and qnrB6 by agar dilution method relative to recipient strain

Molecule CCN1CCN(c2cc3c(cc2F)c(=O)c(C(=O)O)cn3C2CC2)CC1 [ENROFLOXACIN] has an MIC (Escherichia coli [1]) of 32 µg/mL (≈ 89 µM), an MIC (Escherichia coli [2]) of 16 µg/mL (≈ 44.5 µM) and an MIC (Escherichia coli [3]) of 16 µg/mL (≈ 44.5 µM). It also gave an MIC (Escherichia coli [4]) of 64 µg/mL (≈ 178 µM), an MIC (Escherichia coli [5]) of 32 µg/mL (≈ 89 µM) and an MIC (Escherichia coli [6]) of 16 µg/mL (≈ 44.5 µM). The MIC (Escherichia coli [7]) was 8 µg/mL (≈ 22.3 µM), the MIC (Escherichia coli [8]) was > 128 µg/mL and the MIC (Escherichia coli [9]) was 2 µg/mL (≈ 5.56 µM). The MIC (Escherichia coli [10]) was 2 µg/mL (≈ 5.56 µM), the MIC (Escherichia coli [11]) was 2 µg/mL (≈ 5.56 µM) and the MIC (Escherichia coli [12]) was 4 µg/mL (≈ 11.1 µM). The MIC (Escherichia coli [13]) was 0.03 µg/mL (≈ 0.0835 µM), the MIC (Escherichia coli [14]) was 0.03 µg/mL (≈ 0.0835 µM) and the MIC (Escherichia coli [15]) was 0.25 µg/mL (≈ 0.696 µM). The MIC (Escherichia coli [16]) was 16 µg/mL (≈ 44.5 µM), the MIC (Escherichia coli [17]) was 32 µg/mL (≈ 89 µM) and the MIC (Escherichia coli [18]) was 4 µg/mL (≈ 11.1 µM). For the same molecule, the MIC (Escherichia coli [19]) was 4 µg/mL (≈ 11.1 µM), the MIC (Escherichia coli [20]) was 2 µg/mL (≈ 5.56 µM) and the MIC (Escherichia coli [21]) was 2 µg/mL (≈ 5.56 µM). The MIC (Escherichia coli [22]) was 16 µg/mL (≈ 44.5 µM), the MIC (Escherichia coli [23]) was 2 µg/mL (≈ 5.56 µM) and the “fold change (FC)” value (Escherichia coli [24]) was 4. The “fold change (FC)” value (Escherichia coli [25]) was 8, the “fold change (FC)” value (Escherichia coli [26]) was 2 and the “fold change (FC)” value (Escherichia coli [27]) was 16. The “fold change (FC)” value (Escherichia coli [28]) was 2, the “fold change (FC)” value (Escherichia coli [29]) was 4 and the “fold change (FC)” value (Escherichia coli [30]) was 4. The “fold change (FC)” value (Escherichia coli [31]) was 2, the “fold change (FC)” value (Escherichia coli [32]) was 8 and the “fold change (FC)” value (Escherichia coli [33]) was 2. The “fold change (FC)” value (Escherichia coli [34]) was 1, the “fold change (FC)” value (Escherichia coli [35]) was 16 and the “fold change (FC)” value (Escherichia coli [36]) was 1. The “fold change (FC)” value (Escherichia coli [37]) was 2, the “fold change (FC)” value (Escherichia coli [38]) was 2 and the “fold change (FC)” value (Escherichia coli [39]) was 2. For the same molecule, the “fold change (FC)” value (Escherichia coli [40]) was 1, the “fold change (FC)” value (Escherichia coli [41]) was 32 and the “fold change (FC)” value (Escherichia coli [42]) was 2. For the same molecule, the “fold change (FC)” value (Escherichia coli [43]) was 2, the “fold change (FC)” value (Escherichia coli [44]) was 2 and the “fold change (FC)” value (Escherichia coli [45]) was 2. For the same molecule, the “fold change (FC)” value (Escherichia coli [46]) was 4 and the “fold change (FC)” value (Escherichia coli [47]) was 1.

Source: ChEMBL document CHEMBL1671858, “Coprevalence of plasmid-mediated quinolone resistance determinants QepA, Qnr, and AAC(6')-Ib-cr among 16S rRNA methylase RmtB-producing Escherichia coli isolates from pigs” (2008)
